Literature values in patent publication US20030111427A1, “Composition for controlling the dissolving rate of solid sanitizers” (Arch Chemicals, Inc., priority 2001, published 2003).

Conditions: at 30° C.

## [Ca+2].[O-]Cl.[O-]Cl [calcium hypochlorite]
21.6 grams in 100 grams of water
  time for all of the calcium hypochlorite to dissolve: less than 5 minutes
In 100 grams of water
  amount that dissolves in 100 grams of water: about 21.6 grams
